In patent publication US20100029673A1, “THERAPEUTIC AGENTS COMPRISING AN ANTI-ANGIOGENIC AGENT IN COMBINATION WITH AN SRC-INHIBITOR AND THEIR THERAPEUTIC USE” (AstraZeneca AB, priority 2003, published 2010):

Key:
[1] = test system: normotensive rats (Alderley Park strain, male animals); assay: Measurement of blood pressure in conscious rats by radio-telemetry; format: in vivo, rat; details: single dose p.o. of a combination of 1.5 mg/kg of VTK-1 and 25 mg/kg of Src-1 vs control citrate buffer vehicle; FIGS. 1-3
Experimental: Blood pressure was measured using commercially-available radio-telemetry equipment (Data Sciences International, Saint Paul, Minn., USA) which provides a means for the remote measurement of the blood pressure (BP), heart rate and activity of a conscious, unrestrained laboratory animal such as a rat. Measurements obtained using this system have the advantage that the test animal is free from stresses induced by surgery and/or restraint.
The equipment comprises a pressure transducer (Code No. TA11PA-C40; hereinafter the ‘pressure transducer implant’) that is implanted into the abdomen of a laboratory rat. The transducer transmits a radio signal indicating the pressure in the aorta of the animal and the signal is detected by a receiver (RA1010) placed under the plastic cage which houses the animal. The signal is recorded and evaluated automatically by pre-written computer software (DataQuest 2.1 that may be installed on a suitable computer such as an IBM-compatible personal computer containing an Intel™ 486 processor). […]
The animals were housed in a facility using a 12 hour cycle of light and dark. […] Blood pressure data were recorded from each animal every 10 minutes throughout each Study.
Typically, on day 1, each of a group of 3 rats was dosed p.o. at approximately 9.00 am with control vehicle and blood pressure data were recorded during the ensuing 24 hour period. […]

anaesthetized rats = details: 15 μg/kg bFGF; cited from earlier work
conscious rats = details: cited from earlier work
dog coronary arteries = details: cited from earlier work

For `COc1cc2c(Oc3ccc4[nH]c(C)cc4c3F)ncnc2cc1OCCCN1CCCCC1` [VTK-1, 4-(4-fluoro-2-methylindol-5-yloxy)-6-methoxy-7-(3-piperidinopropoxy)quinazoline], the “contrasting blood pressure effects (diastolic blood pressure profile)” value [1] was “substantially counter-balanced”.

In the case of bFGF: basic fibroblast growth factor, the “blood pressure returning to normal” value (anaesthetized rats) is given as at most 30 min.

For VEGF, the “return to normal blood pressure” value (conscious rats; VEGF 250 μg/kg, conscious rats) is listed as at most 20 min, the “effect on blood pressure in the conscious rat” value (conscious rats; conscious rat) is listed as “induce hypotension” and the “effect on dog coronary arteries in vitro” value (dog coronary arteries) is listed as “dilate dog coronary arteries”.

In the case of `CC(=O)N1CCN(CCOc2cc(OC(C)C)c3c(Nc4c(Cl)ccc5c4OCO5)ncnc3c2)CC1` [Src-1, 7-[2-(4-acetylpiperazin-1-yl)ethoxy]-4-(6-chloro-2,3-methylenedioxyanilino)-5-isopropoxyquinazoline], the “contrasting blood pressure effects (diastolic blood pressure profile)” value [1] is reported as “substantially counter-balanced”.
